Experimental data: patent US11246856B2, “Methods of treating resistant cancers” (University of Maryland, Baltimore, priority 2017, dated 2022)

Assays:
A375-PLX-R cells = experiment: Immunoblot of ERK1/2 activity in A375-PLX-R cells; type: cell-based; conditions: TEAD intact versus knockdown, FIG. 3F
Method: (§1) Equivalent amounts of protein were electrophoresed on denaturing and reducing 10% polyacrylamide gels and transferred to nitrocellulose membrane. The membrane was blocked by 5% nonfat dry milk for one hour and incubated with 1:1000 primary antibody in 5% nonfat dry milk. Blots were rinsed in TBS-T and then incubated with secondary antibodies (1:5000) for 2 h. Secondary antibody binding was visualized using ECL Prime (Amersham) chemiluminescence detection technology. For immunostaining, cells were harvested, suspended in growth medium, and plated in LAB-TEK II Chamber Slide System. After 24 h, the cells were fixed with 4% paraformaldehyde at room temperature for 15 min, washed three with phosphate-buffered saline, in 0.1% Triton X-100 for 15 min, washed with phosphate-buffered saline, and blocked for 1 h with phosphate-buffered saline containing 7.5% fetal calf serum. Primary antibodies were added, and the slides incubated overnight at 4° C. Cells were then washed three times with phosphate-buffered saline and incubated 1 h with the appropriate Alexa Flour fluorescence probe-conjugated secondary antibody. After additional washing, the cells were stained with DAPI for 10 min prior to imaging.

[1] = test system: YAP1, TAZ and TEAD in A375 and A375-PLX-R cells; experiment: YAP1/TAZ/TEAD mRNA and protein level after verteporfin, monolayer cells; type: cell-based
Method: as §1
Total RNA was isolated using Illustra RNAspin mini kit (GE Healthcare), and 1 μg of RNA was used for cDNA synthesis. Gene expression was measured by real time PCR using Light Cycler 480 SYBR Green I Master Mix (04-707 516 001) from Roche Diagnostics (Indianapolis, Ind.). The signals were normalized using cyclophilin A control primers. The gene specific primers used for detection of mRNA levels were as follows: cyclophilin A (forward, 5′-[…] (SEQ ID NO: 3); reverse, 5′-[…] (SEQ ID NO: 4)), TAZ (forward, 5′-GTATCCCAGCCAATC TCG (SEQ ID NO: 5); reverse, 5′-TTCTGAGTGGGGTGGTTC (SEQ ID NO: 6)) and YAP1 (forward, 5′-[…] (SEQ ID NO: 7); reverse, 5′-[…], (SEQ ID NO: 8)) (11).
To understand the mechanism of verteporfin action, monolayer A375 and A375-PLX-R cells were treated with […] verteporfin for 24 h and the impact on YAP1/TAZ mRNA and protein level was monitored. […] The proteasome is known to regulate YAP1/TAZ level (29,30) and so whether the proteasome was responsible for the observed reductions was examined.

| Compound | ERK1/2 activity (A375-PLX-R cells) | level of YAP1 or TAZ mRNA ([1]; 1 mM verteporfin, 24 h, monolayer, FIG. 4F) | YAP1 and TAZ protein levels ([1]; 1 mM verteporfin, 24 h, monolayer, FIG. 4G) | TEAD transcription factor levels ([1]; verteporfin treatment, FIG. 4H) |
| --- | --- | --- | --- | --- |
| CCCS(=O)(=O)Nc1ccc(F)c(C(=O)c2c[nH]c3ncc(-c4ccc(Cl)cc4)cc23)c1F [PLX4032] | only reduced in A375-PLX-R cells following TEAD knockdown and PLX4032 treatment |  |  |  |
| verteporfin |  | did not impact | reduced | reduced |
